Values quoted from earlier work, collected in US11542295B2, “Use of 20-hydroxyecdysone and the derivatives thereof in the treatment of myopathies” (BIOPHYTIS, priority 2017, dated 2023).

Columns and labels:
[1] = tested on: muscles of rats; conditions: rats in vivo; cited from earlier work
[2] = tested on: C2C12 mouse myotubes; conditions: C2C12 mouse myotubes in vitro; cited from earlier work
[3] = tested on: young athletes; conditions: young athletes (Simakin et al., 1988); cited from earlier work

Structure (SMILES): CC(C)(O)CC[C@@H](O)[C@](C)(O)[C@H]1CC[C@@]2(O)C3=CC(=O)[C@@H]4C[C@@H](O)[C@@H](O)C[C@]4(C)[C@H]3CC[C@]12C [20-hydroxyecdysone]
- effects on protein syntheses in muscles [1]: stimulant effects
- effects on protein syntheses [2]: stimulant effects
- muscle mass [3]: increases
